Experiments:
Format in all cases: cell-based
[1] = test system: MSTO-211H human mesothelioma cell line; assay: Cell growth inhibition test (CellTiter-Glo), MSTO-211H; settings: MSTO-211H cells
Experimental: (§1) The cell growth for the compounds prepared in Examples was measured by CellTiter-Glo® Luminescent Cell Viability (Promega, Catalog #G7571) method using NCI-H226 (addexbio), NCI-H28 (Korea Cell Line Bank) and MSTO-211H (elabscience) human mesothelioma cell lines. This evaluation method is a method in which when luciferase enzyme is activated by ATP flowing out from living cells, it reacts with a luciferin substrate, and the enzyme activity at this time is measured to confirm cell viability.
(§2) Specifically, NCI-H226, NCI-H28, and MSTO-211H cells were prepared in 100 μL of cell culture medium (RPMI medium, 10% FBS, 1% P/S, 4.5 g/L D-Glucose, 2.383 g/L HEPES Buffer, L-Glutamine, 1.5 g/L Sodium Bicarbonate, 110 mg/L Sodium pyruvate) in a white clear bottom 96-well microplate. The prepared plate was incubated in a 5% CO2 incubator at 37° C. for 24 hours, and then the previously prepared compounds of Examples were finally treated at concentrations of 0.001, 0.01, 0.1, 1, and 10 μM, which was repeated three times for all treatment solutions. The plates treated with the compounds of Examples were incubated in a 5% CO2 incubator at 37° C. 100 μL/well of the substrate aqueous solution containing luciferin was added to a white clear-bottom 96 well microplate, thereby initiating an enzyme reaction. The reaction was performed at room temperature in the dark for 10 minutes, and the luminescence was measured using a Flexstation3 multi-mode microplate reader. In accordance with the instructions for the CellTiter-Glo™ Luminescednt Cell Viability, the luciferase enzyme activity, which represents the amount of ATP, was measured by a chemiluminescence method, and the inhibitory activity of the compounds according to the present invention was calculated. The results of each compound were analyzed using Microsoft Excel, and the IC50 values were calculated using GraphPad Prism software.

[2] = test system: NCI-H28 human mesothelioma cell line; assay: Cell growth inhibition test (CellTiter-Glo), NCI-H28; settings: NCI-H28 cells
Experimental: as §1, §2

[3] = test system: NCI-H226 human mesothelioma cell line; assay: Cell growth inhibition test (CellTiter-Glo), NCI-H226; settings: NCI-H226 cells
Experimental: as §1, §2

[4] = test system: transcription factor TEAD; assay: Activity inhibition test of transcription factor TEAD (ONE-Glo luciferase, TEAD reporter-MCF7 cell line); settings: Homo sapiens; TEAD Reporter-MCF7 cells, 24 hours treatment, luciferase luminescence
Experimental: The transcription factor TEAD activity of the compounds prepared in Examples was measured by the ONE-Glo™ Luciferase assay (Promega, Catalog #E6110) method using the Hippo Pathway TEAD reporter-MCF7 recombinant cell line (BPS Bioscience, Catalog #60618).
Specifically, the TEAD Reporter-MCF7 cell line contains the firefly luciferase gene whose expression is regulated under the control of TEAD response elements in the MCF7, which is a human breast cancer cell line. In the cell line, a non-phosphorylated YAP/TAZ exists in the nucleus in a non-stressed condition, which continuously induces expression of the luciferase reporter.
TEAD Reporter-MCF7 cells were prepared in 100 μL of cell culture medium (MEM medium, 10% FBS, 1% P/S, 400 μg/mL Geneticin, 1% […], 1 mM NA pyruvate, 10 μg/mL Insulin) in a white clear bottom 96-well microplate. The prepared plate was incubated in a 5% CO2 incubator at 37° C. for 24 hours, and then the previously prepared compounds of Examples were finally treated at concentrations of 0.001, 0.01, 0.1, 1, and 10 µM, which were repeated three times for all treatment solutions. The plates treated with the compounds of Examples were incubated in a 5% CO2 incubator at 37° C. for 24 hours. 100 μL/well of the substrate aqueous solution containing luciferin was added to a white clear-bottom 96 well microplate, thereby initiating an enzyme reaction. The reaction was performed at room temperature for 5 minutes, and the luminescence (integration time 1000 ms) was measured using a Flexstation3 multi-mode microplate reader. In accordance with the instructions for the ONE-Glo™ Luciferase Assay, the luciferase enzyme activity, which represents the activity of the transcription factor TEAD, was measured by a chemiluminescence method, and the inhibitory activity of the compound according to the present invention was calculated. The results of each compound were analyzed using Microsoft Excel, and the IC50 values were calculated by GraphPad Prism software.

C=CC(=O)Nc1ccc(Nc2ccc(C(F)(F)F)cn2)c(-c2cn(C)cn2)c1 [Example 6, N-(3-(1-methyl-1H-imidazol-4-yl)-4-((5-(trifluoromethyl)pyridin-2-yl)amino)phenyl)acrylamide]
IC50 [1]: 221 nM | IC50 [2]: 1380 nM | IC50 [3]: 3 nM | IC50 [4]: 10 nM

C=CC(=O)Nc1ccc(Nc2ccc(C(F)(F)F)cn2)c(-c2ccncn2)c1 [Example 15, N-(3-(pyrimidin-4-yl)-4-((5-(trifluoromethyl)pyridin-2-yl)amino)phenyl)acrylamide]
IC50 [1]: 552 nM | IC50 [2]: 1570 nM | IC50 [3]: 71.8 nM | IC50 [4]: 42.8 nM

C=CC(=O)Nc1ccc(Nc2ncc(C(F)(F)F)cc2F)c(-c2ccccn2)c1 [Example 21, N-(4-((3-fluoro-5-(trifluoromethyl)pyridin-2-yl)amino)-3-(pyridin-2-yl)phenyl)acrylamide]
IC50 [1]: 3270 nM | IC50 [2]: 2680 nM | IC50 [3]: 9 nM | IC50 [4]: 11.5 nM

C=CC(=O)Nc1cc(F)c(Nc2ccc(C(F)(F)F)cn2)c(-c2ccccn2)c1 [Example 29, N-(3-fluoro-5-(pyridin-2-yl)-4-((5-(trifluoromethyl)pyridin-2-yl)amino)phenyl)acrylamide]
IC50 [1]: 196 nM | IC50 [2]: 2550 nM | IC50 [3]: 20 nM | IC50 [4]: 21.5 nM

C=CC(=O)Nc1ccc(Nc2cc(C3CC3)c(Cl)cn2)c(-c2ccccn2)c1 [Example 30, N-(4-((5-chloro-4-cyclopropylpyridin-2-yl)amino)-3-(pyridin-2-yl)phenyl)acrylamide]
IC50 [1]: 2210 nM | IC50 [2]: 8790 nM | IC50 [3]: 10 nM | IC50 [4]: 31.6 nM

C=CC(=O)Nc1ccc(Nc2ccc(C(F)(F)F)cc2)c(-c2cn(C)cn2)c1 [Example 35, N-(3-(1-methyl-1H-imidazol-4-yl)-4-((4-(trifluoromethyl)phenyl)amino)phenyl)acrylamide]
IC50 [1]: 105 nM | IC50 [2]: 3020 nM | IC50 [3]: 3 nM | IC50 [4]: 5.3 nM

C=CC(=O)Nc1ccc(Nc2ncc(C(F)(F)F)cc2F)c(-c2cn(C)cn2)c1 [Example 36, N-(4-((3-fluoro-5-(trifluoromethyl)pyridin-2-yl)amino)-3-(1-methyl-1H-imidazol-4-yl)phenyl)acrylamide]
IC50 [1]: > 10000 nM | IC50 [2]: > 10000 nM | IC50 [3]: 12 nM | IC50 [4]: 27 nM

C=CC(=O)Nc1ccc(Nc2cc(Cl)c(C(F)(F)F)cn2)c(-c2ccn(C)n2)c1 [Example 37, N-(4-((4-chloro-5-(trifluoromethyl)pyridin-2-yl)amino)-3-(1-methyl-1H-pyrazol-3-yl)phenyl)acrylamide]
IC50 [1]: 3750 nM | IC50 [2]: 1100 nM | IC50 [3]: 13 nM | IC50 [4]: 4.5 nM

C=CC(=O)Nc1cnc(Nc2ccc(C(F)(F)F)cn2)c(-c2ccccn2)c1 [Example 39, N-(2′-((5-(trifluoromethyl)pyridin-2-yl)amino)-[2,3′-bipyridin]-5′-yl)acrylamide]
IC50 [1]: 194 nM | IC50 [2]: 3280 nM | IC50 [3]: 15.8 nM | IC50 [4]: 40.3 nM

C=CC(=O)Nc1ccc(Nc2ccc(C(F)(F)F)c(F)c2)c(-c2cn(C)cn2)c1 [Example 40, N-(4-((3-fluoro-4-(trifluoromethyl)phenyl)amino)-3-(1-methyl-1H-imidazol-4-yl)phenyl)acrylamide]
IC50 [1]: 1130 nM | IC50 [2]: 5540 nM | IC50 [3]: 6.6 nM | IC50 [4]: 15 nM

C=CC(=O)Nc1ccc(Nc2ncc(C(F)(F)F)cc2Cl)c(-c2ccn(C)n2)c1 [Example 53, N-(4-((3-chloro-5-(trifluoromethyl)pyridin-2-yl)amino)-3-(1-methyl-1H-pyrazol-3-yl)phenyl)acrylamide]
IC50 [1]: 8240 nM | IC50 [2]: 1670 nM | IC50 [3]: 62.8 nM | IC50 [4]: 30.7 nM

C=CC(=O)Nc1ccc(Nc2cc(Cl)c(Cl)cn2)c(-c2ccn(C)n2)c1 [Example 55, N-(4-((4,5-dichloropyridin-2-yl)amino)-3-(1-methyl-1H-pyrazol-3-yl)phenyl)acrylamide]
IC50 [1]: 167 nM | IC50 [2]: 1250 nM | IC50 [3]: 65 nM | IC50 [4]: 12.8 nM
